# Tests used:
# VMAT2 [1] = molecular target: T1, VMAT2 (Homo sapiens, UniProt Q05940); experiment: % VMAT2 blocking by PET scan 60-120 minutes after oral dosing of human volunteers (Example 1A); assay type: in vivo
# T1 construct: from tissue; host or cells: brain of living human volunteers, measured by PET
# Excerpt: (§1) Complete blocking of VMAT2 is considered undesirable as this can lead to unwanted side effects, such as Parkinsonism. […] The levels of VMAT2 blocking can be determined by competitive binding studies using Positron Emission Tomography (PET). By co-administering a radioactive ligand with the compound of interest at various concentrations, the proportion of binding sites occupied can be determined (see for example, Matthews et al., “Positron emission tomography molecular imaging for drug development”, Br. J. Clin. Pharmacol., 73:2, 175-186). Accordingly, the invention also provides:
# In four of the volunteers, blood sample were taken at 30, 60, 120 and 180 minutes after drug administration. Blood samples were not taken from the fifth volunteer. At 60 minutes after drug administration, PET scans were initiated and these were stopped at 120 minutes after drug administration.
# The experiment was carried out at dosages of 7.5 mg, 15 mg and 22.5 mg.
# VMAT2 [2] = molecular target: T1, VMAT2; experiment: % VMAT2 blocking by PET scan 6-7 hours after oral dosing of human volunteers (Example 1B); assay type: in vivo; conditions: for reduction of level of VMAT2 blocking after 6-7 hours compared to 1-2 hours following administration: 7.5 mg
# Excerpt: as §1
# (§2) Volunteers 1 and 2 were the same as volunteers 1 and 2 in Example 1A described above. […] Blood sample were taken from all volunteers 1 to 3 at 2, 4, 6 and 7 hours after drug administration. In addition, in all volunteers PET scans were initiated at 6 hours after drug administration and these were stopped at 7 hours after drug administration.
# [3] = Plasma levels of (+)-α-dihydrotetrabenazine up to 3 hours after oral dosing of human volunteers (Example 1A); assay type: in vivo; conditions: 7.5 mg oral, 0.5 h
# Protocol: […] […] Blood samples were not taken from the fifth volunteer. At 60 minutes after drug administration, PET scans were initiated and these were stopped at 120 minutes after drug administration. The experiment was carried out at dosages of 7.5 mg, 15 mg and 22.5 mg.
# [4] = test system: non-amphetamine induced rats; experiment: Locomotor activity and stereotypic behaviour in non-amphetamine induced rats, open field arena (Example 2, Study 3); assay type: in vivo, rat; conditions: Study 3, non-induced rats; (+)-α-DHTBZ 2.5 mg/kg or 5 mg/kg, risperidone 1 mg/kg
# Protocol: All animal experiments were carried out according to the National Institute of Health (NIH) guidelines for the care and use of laboratory animals, and approved by the National Animal Experiment Board, Finland. Male CD (Charles River Laboratories, Germany) at weight range of 200-250 g (165-200 g upon arrival) were used for the experiments. Animals were housed at a standard temperature (22±1° C.) and in a light-controlled environment (lights on from 7 am to 8 pm) with ad libitum access to food and water.
# Locomotor activity of the rats was tested in open field arena. The open field test was performed during the rat light cycle and under a normal lighting evenly distributed to the test chambers. The paths of the rats were recorded by activity monitor (Med. Associates Inc.).
# Dosing the vehicle, vehicle-amphetamine, (+)-α-DHTBZ or risperidone was done prior to LMA test. The rats were placed in the centre of the arena, and the path was recorded for 60 minutes.
# Animals were grouped as follows: • Group 1: 10 rats treated with Vehicle • Group 2: 10 rats treated with (+)-α-DHTBZ 2.5 mg/kg • Group 3: 10 rats treated with (+)-α-DHTBZ 5 mg/kg • Group 4: 10 rats treated with risperidone 1 mg/kg
# [5] = Plasma levels of (+)-α-dihydrotetrabenazine up to 7 hours after oral dosing of human volunteers (Example 1B); assay type: in vivo; conditions: 7.5 mg, 7.5 mg oral
# Protocol: as §2
# T1 sequence (Q05940 whole entry): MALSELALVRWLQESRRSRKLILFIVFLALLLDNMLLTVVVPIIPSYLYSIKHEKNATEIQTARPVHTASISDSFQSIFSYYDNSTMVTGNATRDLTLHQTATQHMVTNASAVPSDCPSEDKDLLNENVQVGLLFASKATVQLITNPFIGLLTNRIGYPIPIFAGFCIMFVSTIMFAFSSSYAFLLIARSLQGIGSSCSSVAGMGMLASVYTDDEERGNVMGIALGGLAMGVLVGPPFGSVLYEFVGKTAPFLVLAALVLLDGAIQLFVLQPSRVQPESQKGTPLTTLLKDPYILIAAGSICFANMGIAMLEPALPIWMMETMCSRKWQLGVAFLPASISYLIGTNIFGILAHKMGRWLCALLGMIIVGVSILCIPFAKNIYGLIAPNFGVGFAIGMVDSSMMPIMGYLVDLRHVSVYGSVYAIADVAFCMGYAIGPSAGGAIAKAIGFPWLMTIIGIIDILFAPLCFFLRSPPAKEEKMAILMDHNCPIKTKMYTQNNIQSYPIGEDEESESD
smiles,measurement,setting,value
"COc1cc2c(cc1OC)[C@H]1C[C@@H](O)[C@H](CC(C)C)CN1CC2 [(+)-α-dihydrotetrabenazine, (R,R,R)-3-isobutyl-9,10-dimethyloxy-1,3,4,5,7,11b-hexahydro-2H-pyrido[2,1-a]isoquinolin-2-ol]",% VMAT2 blocking,"VMAT2 [1]; 7.5 mg oral, PET scan 60-120 min after administration, subject 1 (112 kg)",54%
same,% VMAT2 blocking,"VMAT2 [1]; 7.5 mg oral, PET scan 60-120 min after administration, subject 2 (76 kg)",73%
same,% VMAT2 blocking,"VMAT2 [1]; 7.5 mg oral, PET scan 60-120 min after administration, subject 3 (129 kg)",62%
same,% VMAT2 blocking,"VMAT2 [1]; 7.5 mg oral, PET scan 60-120 min after administration, subject 4 (59 kg)",84%
same,% VMAT2 blocking,"VMAT2 [1]; 7.5 mg oral, PET scan 60-120 min after administration, subject 5 (91 kg)",73%
same,% VMAT2 blocking,"VMAT2 [1]; 7.5 mg oral, PET scan 60-120 min after administration, subject 6 (68 kg)",60%
same,% VMAT2 blocking,"VMAT2 [1]; 15 mg oral, PET scan 60-120 min after administration, subject 1 (112 kg)",73%
same,% VMAT2 blocking,"VMAT2 [1]; 15 mg oral, PET scan 60-120 min after administration, subject 2 (76 kg)",83%
same,% VMAT2 blocking,"VMAT2 [1]; 15 mg oral, PET scan 60-120 min after administration, subject 3 (129 kg)",69%
same,% VMAT2 blocking,"VMAT2 [1]; 15 mg oral, PET scan 60-120 min after administration, subject 4 (59 kg)",89%
same,% VMAT2 blocking,"VMAT2 [1]; 15 mg oral, PET scan 60-120 min after administration, subject 5 (91 kg)",79%
same,% VMAT2 blocking,"VMAT2 [1]; 15 mg oral, PET scan 60-120 min after administration, subject 6 (68 kg)",76%
same,% VMAT2 blocking,"VMAT2 [1]; 22.5 mg oral, PET scan 60-120 min after administration, subject 1 (112 kg)",75%
same,% VMAT2 blocking,"VMAT2 [1]; 22.5 mg oral, PET scan 60-120 min after administration, subject 2 (76 kg)",82%
same,% VMAT2 blocking,"VMAT2 [1]; 22.5 mg oral, PET scan 60-120 min after administration, subject 3 (129 kg)",74%
same,% VMAT2 blocking,"VMAT2 [1]; 22.5 mg oral, PET scan 60-120 min after administration, subject 5 (91 kg)",82%
same,% VMAT2 blocking,"VMAT2 [1]; 22.5 mg oral, PET scan 60-120 min after administration, subject 6 (68 kg)",62%
same,% VMAT2 blocking,"VMAT2 [1]; heavier individuals, doses as low as 7.5 mg",at least 50%
same,% VMAT2 blocking,"VMAT2 [2]; 7.5 mg oral, PET scan 6-7 hours after administration, subject 1 (112 kg)",38%
same,% VMAT2 blocking,"VMAT2 [2]; 7.5 mg oral, PET scan 6-7 hours after administration, subject 2 (76 kg)",65%
same,% VMAT2 blocking,"VMAT2 [2]; 7.5 mg oral, PET scan 6-7 hours after administration, subject 3 (76 kg)",41%
same,% VMAT2 blocking,"VMAT2 [2]; 7.5 mg oral, PET scan 6-7 hours after administration, subject 4 (95 kg)",34%
same,% VMAT2 blocking,"VMAT2 [2]; 7.5 mg oral, PET scan 6-7 hours after administration, subject 5 (99 kg)",36%
same,reduction of level of VMAT2 blocking after 6-7 hours compared to 1-2 hours following administration,VMAT2 [2]; subject 1,30%
same,reduction of level of VMAT2 blocking after 6-7 hours compared to 1-2 hours following administration,VMAT2 [2]; subject 2,11%
same,% VMAT2 blocking,VMAT2 [2]; after 6 hours following administration of 7.5 mg,greater than 30%
same,plasma concentration of (+)-α-dihydrotetrabenazine,[3]; subject 1 (112 kg),BLQ
same,plasma concentration of (+)-α-dihydrotetrabenazine,[3]; subject 6 (68 kg),BLQ
same,total movement compared to rats treated with the vehicle,[4],comparable
same,total stereotypic behaviour compared to rats treated with the vehicle,[4],comparable
same,concentration at 2 h,[5]; subject 1 (112 kg),6.01 ng/mL
same,concentration at 2 h,[5]; subject 2 (76 kg),17.5 ng/mL
same,concentration at 2 h,[5]; subject 3 (76 kg),7.92 ng/mL
same,concentration at 4 h,[5]; subject 1 (112 kg),4.54 ng/mL
same,concentration at 4 h,[5]; subject 2 (76 kg),4.54 ng/mL
same,concentration at 4 h,[5]; subject 3 (76 kg),5.57 ng/mL
same,concentration at 6 h,[5]; subject 1 (112 kg),3.65 ng/mL
same,concentration at 6 h,[5]; subject 2 (76 kg),3.65 ng/mL
same,concentration at 6 h,[5]; subject 3 (76 kg),4.84 ng/mL
same,concentration at 7 h,[5]; subject 1 (112 kg),8.7 ng/mL
same,concentration at 7 h,[5]; subject 2 (76 kg),11.7 ng/mL
same,concentration at 7 h,[5]; subject 3 (76 kg),12.8 ng/mL

# — patent US20220211678A1, “USES OF (+)-A-DIHYDROTETRABENAZINE IN METHODS OF TREATING MOVEMENT DISORDER” (ADEPTIO PHARMACEUTICALS LIMITED, priority 2017, published 2022)
